Laboratory results published in patent US7253177B2, “Synthesis and antimalarial activity of pyrrolo[3,2-f]quinazoline-1,3-diamine derivatives” (United States of America as Represented by the Secretary of …, priority 2004, dated 2007).
“And” between values parts separate entries of the source, which are not always exact repeats. Equal values may be shown once.

Tested on: P. cynomolgi sporozoites
Assay: Presumptive causal prophylactic test against P. cynomolgi in Rhesus monkey
Assay type: in vivo, Plasmodium cynomolgi
Conditions: for protection compared with untreated control: oral 3 mg/kg, 3 mg/kg
Method: (e). Toxicity Study in Aotus monkey: Protocol: Two malaria double cured Aotus weighing 1027-695 grams respectively received single dose of 3 mg/kg orally of the two compounds 2b and 3e. The monkeys were weighed and pre-bleed for CBC and Chemistry (ALT, BUN, Creatinine) determination, and again three, seven and 15 days post treatment. Signs of toxicity such as anorexia, vomiting, diarrhea or behavior changes were recorded. […] (f). Antimalarial Activity against P. falciparum in Aotus monkey: Protocol: Six (6) malaria naive Aotus lemurinus lemurinus (weigh 787-978 grms) were divided into two groups of two Aotus each plus two controls (MN13177 male and MN 13153 male) and infected with 5×10^6 P. falciparum FVO malaria parasites with 1 ml of an appropriate dilution in RPMI media intravenously on the saphenous vein. When their parasitemia reached 5×10^4 parasites/ul, treatment was started. Giemsa-stained thick blood smears were prepared daily with a prick in the ear marginal vein and parasites enumerated by the Earle and Perez method. Group 1 Aotus received 3e at 1 mg/kg once a day×three days. Group 2 Aotus received 2b at 1 mg/kg once a day×three days. The monkeys were weight and pre-bled for CBC and Chemistry (ALT, BUN, Creatinine) determination, and on day 4 post-treatmetne (PT). Bleedings for Pk determinations were carried out on day 1 PT at time 0, 1 hr, 7:30 hr and 24 hr PT. Group 1 (receiving 3e) animals cleared the parasitemias on day 3 post treatment (PT) and remained negative up to 100 days PT. In group 2 (receiving 2b), one animal cleared on day 3 PT and the other one on day 4 PT remaining negative up to 100 days PT. […] (g). Antimalarial Activity against P. vivax in Aotus monkey: Protocol: Fourteen (14) P. falciparum cured Aotus l. lemurinus monkeys (male and female) (weight 700-925 grms) were infected intravenously with 5×10^6 parasites of the P. vivax AMRU-1 strain diluted in RPMI media obtained from a donor and divided into two larger groups of 6 monkeys each (Group I and Group II) (2 monkeys per dose level), that received 3e and 6 monkeys (2 monkeys per dose level) that received 2b daily at 0.5, 1.0 and 3 mg/kg/day for a total of 3 days. Two monkeys were left has untreated controls. Treatment started when parasitemia reached 5,000 parasites×cc/mm on day 6 PI. Daily food intake was documented. Daily Giemsa-stained thick blood smears were prepared from a prick in the marginal ear vein and parasites enumerated by the Earle and Perez method. The animals were weighed at weekly intervals. Blood samples for Pk determination were collected at the following time points as follows: Day 0: CBC and chemistry panel (ALT. Creatinine and BUN); Day 4: CBC and chemistry Panel. CBC and chemistry panels were done the day prior to first dose and 24 hours after last dose and at weekly intervals thereafter. […] The other monkeys received 1 and 3 mg/kg of 3e remained negative until day 100 PT. In Group II, all monkeys except for one that received 3 mg/kg of 2b failed treatment and were retreated on day 3 PT with 3e at either 0.25, 0.5 or 1 mg/kg for three days. In the monkeys that received re-treatment at 0.25 mg/kg, one cleared on day 4 PT but needed to be treated with Mefloquine on day 8 PT due to a low platelet count. The other animals that had not been cleared by day 6 PT were treated with Mefloquine. […] P. vivax is known to be very drug resistant to antifolates. (h). Presumptive Causal Prophylactic Test against P. cynomolgi in Rhesus monkey: Protocol:
(1). Type of study: This study is causal prophylactic test. Six Rhesus monkeys weighing 3-4 kg were randomized to 2 control animals and 2 groups of 2 experimental animals each.
(2). Donor monkey: A donor monkey was inoculated intravenously with 1.3 mL freshly-thawed frozen infected red blood cell. When the monkey developed gametocytemia, mosquito feedings were conducted on days 13 and 14 after inoculation. […]

CCOC(=O)Nc1nc(NC(=O)OCC)c2c(ccc3c2ccn3Cc2ccccc2C(F)(F)F)n1 [Compound 2b]
comparative protection activity (P. cynomolgi): better protection activity than 3e
day of parasitemia development after sporozoite challenge (oral 1 mg/kg on days -1, 0, 1, control day 8, listed as WR288830): 9 days and 15 days
protection compared with untreated control: 8 days and 15 days

CC(=O)N(C(C)=O)c1nc(N(C(C)=O)C(C)=O)c2c(ccc3c2ccn3Cc2ccccc2C(F)(F)F)n1 [Compound 3e, 1,3-Bis(diacetylamino)-7-(2-trifluoromethyl)benzyl-7H-pyrrolo[3,2-f]quinazoline]
day of parasitemia development after sporozoite challenge (oral 1 mg/kg on days -1, 0, 1, control day 8): 8 days and 11 days
day of parasitemia development after sporozoite challenge (oral 3 mg/kg on days -1, 0, 1, control day 8): 15 days
protection compared with untreated control: 7 days
